Source: the NIST ThermoML archive (doi:10.1021/je034087q)

Test: xn = mol fraction of the nth substance listed

CC(C)=O [acetone] + O=C=O
Settings	mass density [kg/m3]
323.15 K, 9680 kPa, Fluid (supercritical or subcritical phases), x2 = 0.952	588
323.15 K, 9710 kPa, Fluid (supercritical or subcritical phases), x2 = 0.902	707
323.15 K, 9750 kPa, Fluid (supercritical or subcritical phases), x2 = 0.933	656
323.15 K, 9750 kPa, Fluid (supercritical or subcritical phases), x2 = 0.952	594
323.15 K, 9840 kPa, Fluid (supercritical or subcritical phases), x2 = 0.948	625
323.15 K, 9850 kPa, Fluid (supercritical or subcritical phases), x2 = 0.952	603
323.15 K, 9870 kPa, Fluid (supercritical or subcritical phases), x2 = 0.902	711
323.15 K, 9900 kPa, Fluid (supercritical or subcritical phases), x2 = 0.811	790
323.15 K, 9900 kPa, Fluid (supercritical or subcritical phases), x2 = 0.882	743
323.15 K, 9900 kPa, Fluid (supercritical or subcritical phases), x2 = 0.933	664
323.15 K, 9940 kPa, Fluid (supercritical or subcritical phases), x2 = 0.952	611
323.15 K, 9960 kPa, Fluid (supercritical or subcritical phases), x2 = 0.772	803
323.15 K, 10020 kPa, Fluid (supercritical or subcritical phases), x2 = 0.902	715
323.15 K, 10030 kPa, Fluid (supercritical or subcritical phases), x2 = 0.948	638
323.15 K, 10050 kPa, Fluid (supercritical or subcritical phases), x2 = 0.933	669
323.15 K, 10100 kPa, Fluid (supercritical or subcritical phases), x2 = 0.952	623
323.15 K, 10160 kPa, Fluid (supercritical or subcritical phases), x2 = 0.902	719
323.15 K, 10220 kPa, Fluid (supercritical or subcritical phases), x2 = 0.933	678
323.15 K, 10290 kPa, Fluid (supercritical or subcritical phases), x2 = 0.882	748
323.15 K, 10290 kPa, Fluid (supercritical or subcritical phases), x2 = 0.948	651
323.15 K, 10320 kPa, Fluid (supercritical or subcritical phases), x2 = 0.952	636
323.15 K, 10360 kPa, Fluid (supercritical or subcritical phases), x2 = 0.902	722
323.15 K, 10420 kPa, Fluid (supercritical or subcritical phases), x2 = 0.933	684
323.15 K, 10440 kPa, Fluid (supercritical or subcritical phases), x2 = 0.576	818
323.15 K, 10490 kPa, Fluid (supercritical or subcritical phases), x2 = 0.811	796
323.15 K, 10540 kPa, Fluid (supercritical or subcritical phases), x2 = 0.772	807
323.15 K, 10570 kPa, Fluid (supercritical or subcritical phases), x2 = 0.902	727
323.15 K, 10590 kPa, Fluid (supercritical or subcritical phases), x2 = 0.952	649
323.15 K, 10600 kPa, Fluid (supercritical or subcritical phases), x2 = 0.948	666
323.15 K, 10630 kPa, Fluid (supercritical or subcritical phases), x2 = 0.882	754
323.15 K, 10640 kPa, Fluid (supercritical or subcritical phases), x2 = 0.933	693
323.15 K, 10780 kPa, Fluid (supercritical or subcritical phases), x2 = 0.902	733
323.15 K, 10800 kPa, Fluid (supercritical or subcritical phases), x2 = 0.186	785
323.15 K, 10880 kPa, Fluid (supercritical or subcritical phases), x2 = 0.933	699
323.15 K, 10920 kPa, Fluid (supercritical or subcritical phases), x2 = 0.952	663
323.15 K, 10950 kPa, Fluid (supercritical or subcritical phases), x2 = 0.882	761
323.15 K, 10980 kPa, Fluid (supercritical or subcritical phases), x2 = 0.948	679
323.15 K, 10990 kPa, Fluid (supercritical or subcritical phases), x2 = 0.811	801
323.15 K, 11000 kPa, Fluid (supercritical or subcritical phases), x2 = 0.902	736
323.15 K, 11060 kPa, Fluid (supercritical or subcritical phases), x2 = 0.772	811
323.15 K, 11160 kPa, Fluid (supercritical or subcritical phases), x2 = 0.933	707
323.15 K, 11260 kPa, Fluid (supercritical or subcritical phases), x2 = 0.902	740
323.15 K, 11280 kPa, Fluid (supercritical or subcritical phases), x2 = 0.952	678
323.15 K, 11440 kPa, Fluid (supercritical or subcritical phases), x2 = 0.882	764
323.15 K, 11460 kPa, Fluid (supercritical or subcritical phases), x2 = 0.933	714
323.15 K, 11480 kPa, Fluid (supercritical or subcritical phases), x2 = 0.811	805
323.15 K, 11480 kPa, Fluid (supercritical or subcritical phases), x2 = 0.948	696
323.15 K, 11500 kPa, Fluid (supercritical or subcritical phases), x2 = 0.902	744
323.15 K, 11640 kPa, Fluid (supercritical or subcritical phases), x2 = 0.383	806
323.15 K, 11760 kPa, Fluid (supercritical or subcritical phases), x2 = 0.772	815
323.15 K, 11760 kPa, Fluid (supercritical or subcritical phases), x2 = 0.902	751
323.15 K, 11780 kPa, Fluid (supercritical or subcritical phases), x2 = 0.952	694
323.15 K, 11800 kPa, Fluid (supercritical or subcritical phases), x2 = 0.933	724
323.15 K, 11870 kPa, Fluid (supercritical or subcritical phases), x2 = 0.576	825
323.15 K, 11870 kPa, Fluid (supercritical or subcritical phases), x2 = 0.882	769
323.15 K, 11950 kPa, Fluid (supercritical or subcritical phases), x2 = 0.811	807
323.15 K, 12030 kPa, Fluid (supercritical or subcritical phases), x2 = 0.902	754
323.15 K, 12090 kPa, Fluid (supercritical or subcritical phases), x2 = 0.948	711
323.15 K, 12200 kPa, Fluid (supercritical or subcritical phases), x2 = 0.933	731
323.15 K, 12260 kPa, Fluid (supercritical or subcritical phases), x2 = 0.882	779
323.15 K, 12300 kPa, Fluid (supercritical or subcritical phases), x2 = 0.902	757
323.15 K, 12370 kPa, Fluid (supercritical or subcritical phases), x2 = 0.772	818
323.15 K, 12400 kPa, Fluid (supercritical or subcritical phases), x2 = 0.952	710
323.15 K, 12560 kPa, Fluid (supercritical or subcritical phases), x2 = 0.811	813
323.15 K, 12620 kPa, Fluid (supercritical or subcritical phases), x2 = 0.902	762
323.15 K, 12620 kPa, Fluid (supercritical or subcritical phases), x2 = 0.933	740
323.15 K, 12680 kPa, Fluid (supercritical or subcritical phases), x2 = 0.186	788
323.15 K, 12750 kPa, Fluid (supercritical or subcritical phases), x2 = 0.948	727
323.15 K, 12960 kPa, Fluid (supercritical or subcritical phases), x2 = 0.902	769
323.15 K, 12970 kPa, Fluid (supercritical or subcritical phases), x2 = 0.882	785
323.15 K, 13090 kPa, Fluid (supercritical or subcritical phases), x2 = 0.811	818
323.15 K, 13130 kPa, Fluid (supercritical or subcritical phases), x2 = 0.772	823
323.15 K, 13130 kPa, Fluid (supercritical or subcritical phases), x2 = 0.933	748
323.15 K, 13170 kPa, Fluid (supercritical or subcritical phases), x2 = 0.952	726
323.15 K, 13190 kPa, Fluid (supercritical or subcritical phases), x2 = 0.576	829
323.15 K, 13240 kPa, Fluid (supercritical or subcritical phases), x2 = 0.902	771
323.15 K, 13450 kPa, Fluid (supercritical or subcritical phases), x2 = 0.902	775
323.15 K, 13560 kPa, Fluid (supercritical or subcritical phases), x2 = 0.383	813
323.15 K, 13560 kPa, Fluid (supercritical or subcritical phases), x2 = 0.882	791
323.15 K, 13610 kPa, Fluid (supercritical or subcritical phases), x2 = 0.811	821
323.15 K, 13640 kPa, Fluid (supercritical or subcritical phases), x2 = 0.948	744
323.15 K, 13700 kPa, Fluid (supercritical or subcritical phases), x2 = 0.933	758
323.15 K, 13770 kPa, Fluid (supercritical or subcritical phases), x2 = 0.902	776
323.15 K, 13790 kPa, Fluid (supercritical or subcritical phases), x2 = 0.772	827
323.15 K, 14080 kPa, Fluid (supercritical or subcritical phases), x2 = 0.186	789
323.15 K, 14080 kPa, Fluid (supercritical or subcritical phases), x2 = 0.952	744
323.15 K, 14100 kPa, Fluid (supercritical or subcritical phases), x2 = 0.902	781
323.15 K, 14290 kPa, Fluid (supercritical or subcritical phases), x2 = 0.933	767
323.15 K, 14430 kPa, Fluid (supercritical or subcritical phases), x2 = 0.902	785
323.15 K, 14460 kPa, Fluid (supercritical or subcritical phases), x2 = 0.811	826
323.15 K, 14550 kPa, Fluid (supercritical or subcritical phases), x2 = 0.772	831
323.15 K, 14550 kPa, Fluid (supercritical or subcritical phases), x2 = 0.882	800
323.15 K, 14590 kPa, Fluid (supercritical or subcritical phases), x2 = 0.952	751
323.15 K, 14730 kPa, Fluid (supercritical or subcritical phases), x2 = 0.948	762
323.15 K, 14780 kPa, Fluid (supercritical or subcritical phases), x2 = 0.902	789
323.15 K, 14810 kPa, Fluid (supercritical or subcritical phases), x2 = 0.383	817
323.15 K, 14920 kPa, Fluid (supercritical or subcritical phases), x2 = 0.933	777
323.15 K, 14950 kPa, Fluid (supercritical or subcritical phases), x2 = 0.186	791
323.15 K, 15040 kPa, Fluid (supercritical or subcritical phases), x2 = 0.576	834
323.15 K, 15140 kPa, Fluid (supercritical or subcritical phases), x2 = 0.902	792
323.15 K, Liquid, Other PVT measurement, x2 = 0.186	760
323.15 K, Liquid, Other PVT measurement, x2 = 0.383	787
323.15 K, Liquid, Other PVT measurement, x2 = 0.576	795
323.15 K, Liquid, Other PVT measurement, x2 = 0.772	779
323.15 K, Liquid, Other PVT measurement, x2 = 0.811	758
323.15 K, Liquid, Other PVT measurement, x2 = 0.882	701
323.15 K, Liquid, Other PVT measurement, x2 = 0.902	672
323.15 K, Liquid, Other PVT measurement, x2 = 0.933	584
326.65 K, 9160 kPa, Fluid (supercritical or subcritical phases), x2 = 0.933	528
326.65 K, 9180 kPa, Fluid (supercritical or subcritical phases), x2 = 0.933	531
